The supplement of paper PMC10307832

Key:
Assay in all cases: relative viability (nuclei count vs DMSO), 5 days (fraction); higher = more cells survive
[1] = compound: CC1=CC=C(C=C1)C(=O)CN2C3=C(CCCC3)SC2=N [Pifithrin_alpha] + Cc1nc(NC(=O)N2CCC[C@H]2C(N)=O)sc1-c1ccnc(C(C)(C)C(F)(F)F)c1 [Alpelisib] (partner 2 µM)
In short: (§1)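 Relative viability divides the nuclei count in treated wells by that in vehicle wells. Lung cancer cell lines were seeded in 1536-well plates, dosed by pin tool the next day, and fixed and stained after 5 days in one step with final 0.05% Triton X-100, 1% formaldehyde and 1 ug/ml Hoechst. Dosing was a single drug or a fixed anchor-drug dose plus five library-drug doses (not always all listed) in √10 steps, and values are medians of duplicate plates imaged at 4×.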

[2] = compound: CNC(=O)c1ccccc1Sc1ccc2c(/C=C/c3ccccn3)n[nH]c2c1 [Axitinib] + CC(=O)Nc1cccc(-n2c(=O)n(C3CC3)c(=O)c3c(Nc4ccc(I)cc4F)n(C)c(=O)c(C)c32)c1 [Trametinib] (partner 0.02 µM)
In short: as §1

[3] = compound: CNC(=O)c1ccccc1Sc1ccc2c(/C=C/c3ccccn3)n[nH]c2c1 [Axitinib] + O=C(c1cc(Cc2n[nH]c(=O)c3ccccc23)ccc1F)N1CCN(C(=O)C2CC2)CC1 [Olaparib] (partner 8 µM)
In short: as §1

[4] = compound: Nc1nc(Nc2ccc3c(c2)CC[C@@H](N2CCCC2)CC3)nn1-c1cc2c(nn1)-c1ccccc1CCC2 [Bemcentinib] + CS(=O)(=O)CCNCc1ccc(-c2ccc3ncnc(Nc4ccc(OCc5cccc(F)c5)c(Cl)c4)c3c2)o1 [Lapatinib] (partner 2 µM)
In short: as §1

Cell Line | relative viability ([1]; first compound 1 µM) | relative viability ([1]; first compound 3.162 µM) | relative viability ([1]; first compound 10 µM) | relative viability ([1]; first compound 31.62 µM) | relative viability ([1]; first compound 100 µM) | relative viability ([2]; first compound 0.005 µM) | relative viability ([2]; first compound 0.01581 µM) | relative viability ([2]; first compound 0.05 µM) | relative viability ([2]; first compound 0.1581 µM) | relative viability ([2]; first compound 0.5 µM) | relative viability ([3]; first compound 0.005 µM) | relative viability ([3]; first compound 0.01581 µM) | relative viability ([3]; first compound 0.05 µM) | relative viability ([3]; first compound 0.1581 µM) | relative viability ([3]; first compound 0.5 µM) | relative viability ([4]; first compound 0.04 µM) | relative viability ([4]; first compound 0.1265 µM) | relative viability ([4]; first compound 0.4 µM) | relative viability ([4]; first compound 1.265 µM) | relative viability ([4]; first compound 4 µM)
NCI-H2087 | 1.05 | 1.04 | 0.862 | 0.671 | 0.884 | 0.206 | 0.182 | 0.196 | 0.21 | 0.242 | 0.741 | 0.503 | 0.642 | 0.549 | 0.661 | 0.992 | 0.951 | 1.08 | 1.01 | 1.01
NCI-H2126 | 0.714 | 0.714 | 0.685 | 0.623 | 0.655 | 0.536 | 0.612 | 0.578 | 0.603 | 0.545 | 0.913 | 0.907 | 0.884 | 0.917 | 0.944 | 0.791 | 0.768 | 0.8 | 0.814 | 0.842
NCI-H2170 | 0.799 | 0.821 | 0.756 | 0.537 | 0.744 | 0.925 | 0.926 | 0.875 | 0.917 | 1.08 | 0.693 | 0.616 | 0.569 | 0.595 | 0.671 | 0.274 | 0.267 | 0.295 | 0.251 | 0.273
NCI-H2228 | 0.697 | 0.613 | 0.566 | 0.531 | 0.465 | 0.683 | 0.515 | 0.561 | 0.478 | 0.509 | 0.636 | 0.706 | 0.713 | 0.466 | 0.91 | – | 1.39 | 1.18 | 1.08 | 1.18
NCI-H2347 | 0.952 | 0.993 | 0.991 | 0.682 | 1.1 | 0.257 | 0.292 | 0.427 | 0.279 | 0.318 | 0.592 | 0.629 | 0.575 | 0.65 | 0.557 | 1.01 | 0.928 | 0.977 | 0.955 | 0.9
NCI-H2405 | – | 0.723 | 0.718 | 0.675 | 0.665 | 0.635 | 0.56 | 0.513 | 0.594 | 0.576 | 0.892 | 0.919 | 0.94 | 0.827 | 0.949 | 0.86 | 1.16 | 1.05 | 1.1 | 1.03
NCI-H3122 | 0.859 | 0.864 | 0.912 | 0.812 | 0.917 | 0.217 | 0.212 | 0.255 | 0.217 | 0.267 | 0.571 | 0.629 | 0.59 | 0.598 | 0.652 | 0.818 | 1.03 | 1.03 | 1.02 | 1.03
PC-3 [JPC-3] | 0.953 | 0.945 | 0.975 | 0.884 | 0.882 | 0.756 | – | 0.626 | 0.762 | 0.741 | 1.16 | – | 1.19 | 1.12 | 1.44 | 0.455 | 0.495 | 0.421 | 0.425 | 0.471
PC-14 | 0.952 | 0.953 | 0.975 | 0.771 | 0.848 | 0.763 | 0.789 | 0.879 | 0.759 | 1.04 | 0.326 | 0.368 | 0.275 | 0.4 | 0.24 | 0.336 | 0.372 | 0.339 | 0.3 | 0.284
RERF-LC-KJ | 0.983 | 0.791 | 0.807 | 0.707 | 0.682 | 0.952 | 0.91 | 0.875 | 0.833 | 0.966 | 1.1 | 0.853 | 0.964 | 0.81 | 0.951 | 0.848 | 1.02 | 1.15 | 0.919 | 0.885
SK-LU-1 | 0.828 | 1.19 | 1.13 | 0.766 | 1.16 | 0.515 | 0.631 | 0.478 | 0.412 | 0.459 | 0.454 | 0.476 | 0.525 | 0.448 | 0.477 | 0.806 | 0.888 | 0.865 | 0.964 | 0.904
SK-MES-1 | 0.882 | 0.955 | 0.851 | 0.626 | 0.775 | 0.553 | 0.562 | 0.569 | 0.485 | 0.581 | 0.775 | 0.829 | 0.711 | 0.833 | 1.02 | 0.437 | 0.447 | 0.431 | 0.482 | 0.511
SW 1573 | 0.715 | 0.824 | 0.816 | 0.647 | 0.729 | 0.525 | 0.558 | 0.665 | 0.521 | 0.611 | 0.502 | 0.595 | 0.55 | 0.417 | 0.507 | 0.976 | 1.03 | 1.18 | 0.961 | 1.09
UMC-11 | 1.09 | 1.07 | 1.05 | 0.842 | 1.16 | 0.709 | 0.668 | 0.572 | 0.691 | 0.616 | 0.353 | 0.4 | 0.737 | 0.376 | 0.335 | 0.88 | 1.16 | 1.06 | 0.868 | 0.975
